Reference: patent publication US6573275B1, “Bicyclic amines” (Syngenta Limited, priority 1995, dated 2003)

test system: peach aphid (Myzus persicae); assay: Insecticidal test against peach aphid, infested Chinese cabbage leaves sprayed; type: in vivo; details: peach aphid (Myzus persicae) on Chinese cabbage leaves, sprayed with 500 ppm composition unless otherwise stated, mortality assessed after 3 days
Summary of the method: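 Aphid-infested Chinese cabbage leaves were sprayed with compound at 500 ppm unless otherwise stated, formulated in acetone/ethanol diluted with water containing 0.05% Synperonic NP8. Mortality was assessed after 3 days.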

Structure (SMILES)	Score (grading of mortality)
N#CC1(c2cncc(Cl)c2)CC2CCC(C1)N2Cc1ccc(C(F)(F)F)cc1 (stereo not shown) [Compound 256]	A (A indicates 80-100% mortality)
N#CC1(c2cncc(Cl)c2)CC2CCC(C1)N2Cc1cccc(Cl)c1F (stereo not shown) [Compound 257]	A (A indicates 80-100% mortality)
N#CC1(c2cncc(Cl)c2)CC2CCC(C1)N2Cc1c(F)ccc(F)c1Cl (stereo not shown) [Compound 258]	A (A indicates 80-100% mortality)
N#CC1(c2cncc(Cl)c2)CC2CCC(C1)N2Cc1ccccc1Cl (stereo not shown) [Compound 259]	A (A indicates 80-100% mortality)
N#CC1(c2cncc(Cl)c2)CC2CCC(C1)N2Cc1c(Cl)cccc1Cl (stereo not shown) [Compound 260]	A (A indicates 80-100% mortality)
N#CC1(c2cncc(Cl)c2)CC2CCC(C1)N2Cc1cccc(Cl)c1 (stereo not shown) [Compound 261]	A (A indicates 80-100% mortality)
N#CC1(c2cncc(Cl)c2)CC2CCC(C1)N2Cc1ccc(F)cc1I (stereo not shown) [Compound 262]	A (A indicates 80-100% mortality)
Cc1cccc(CN2C3CCC2CC(C#N)(c2cncc(Cl)c2)C3)c1F (stereo not shown) [Compound 263]	A (A indicates 80-100% mortality)
N#CC1(c2cncc(Cl)c2)CC2CCC(C1)N2Cc1ccccc1N1C(=O)CCC1=O (stereo not shown) [Compound 264]	A (A indicates 80-100% mortality)
N#CC1(c2cncc(Cl)c2)CC2CCC(C1)N2Cc1cc(C(F)(F)F)ccc1F (stereo not shown) [Compound 265]	A (A indicates 80-100% mortality)
N#CC1(c2cncc(Cl)c2)CC2CCC(C1)N2Cc1ccccc1-c1ccccc1 (stereo not shown) [Compound 266]	A (A indicates 80-100% mortality)
N#Cc1ccccc1CN1C2CCC1CC(C#N)(c1cncc(Cl)c1)C2 (stereo not shown) [Compound 267]	A (A indicates 80-100% mortality)
N#CC1(c2cncc(Cl)c2)CC2CCC(C1)N2Cc1cccc(Oc2ccc(F)cc2)c1 (stereo not shown) [Compound 269]	A (A indicates 80-100% mortality)
N#Cc1ccc(CN2C3CCC2CC(C#N)(c2cncc(Cl)c2)C3)cc1 (stereo not shown) [Compound 270]	A (A indicates 80-100% mortality)
N#CC1(c2cncc(Cl)c2)CC2CCC(C1)N2Cc1ccc(F)c(F)c1F (stereo not shown) [Compound 271]	A (A indicates 80-100% mortality)
N#CC1(c2cncc(Cl)c2)CC2CCC(C1)N2Cc1ccccc1[N+](=O)[O-] (stereo not shown) [Compound 272]	A (A indicates 80-100% mortality)
N#CC1(c2cncc(Cl)c2)CC2CCC(C1)N2Cc1c(F)cccc1[N+](=O)[O-] (stereo not shown) [Compound 273]	A (A indicates 80-100% mortality)
N#CC1(c2cncc(Cl)c2)CC2CCC(C1)N2Cc1cccc([N+](=O)[O-])c1 (stereo not shown) [Compound 274]	A (A indicates 80-100% mortality)
N#CC1(c2cncc(Cl)c2)CC2CCC(C1)N2Cc1ccc([N+](=O)[O-])cc1 (stereo not shown) [Compound 275]	A (A indicates 80-100% mortality)
CC(C)CN1C2CCC1CC(C#N)(c1cncc(Cl)c1)C2 (stereo not shown) [Compound 276]	A (A indicates 80-100% mortality)
CCCCCCCCCCN1C2CCC1CC(C#N)(c1cncc(Cl)c1)C2 (stereo not shown) [Compound 277]	A (A indicates 80-100% mortality)
N#CC1(c2cncc(Cl)c2)CC2CCC(C1)N2CCOc1ccccc1 (stereo not shown) [Compound 278]	A (A indicates 80-100% mortality)
CCOCCN1C2CCC1CC(C#N)(c1cncc(Cl)c1)C2 (stereo not shown) [Compound 279]	A (A indicates 80-100% mortality)

Structure (SMILES)	Score (grading of mortality)
CC(C)CCN1C2CCC1CC(C#N)(c1cncc(Cl)c1)C2 (stereo not shown) [Compound 280]	A (A indicates 80-100% mortality)
COC(=O)CCCN1C2CCC1CC(C#N)(c1cncc(Cl)c1)C2 (stereo not shown) [Compound 281]	A (A indicates 80-100% mortality)
N#CC1(c2cncc(Cl)c2)CC2CCC(C1)N2CCCc1ccccc1 (stereo not shown) [Compound 282]	A (A indicates 80-100% mortality)
N#CC1(c2cncc(Cl)c2)CC2CCC(C1)N2CC1CCCCC1 (stereo not shown) [Compound 283]	A (A indicates 80-100% mortality)
N#CCCN1C2CCC1CC(C#N)(c1cncc(Cl)c1)C2 (stereo not drawn) [Compound 284, exo-3-(5-chloropyrid-3-yl)-endo-3-cyano-8-(2-cyanoethyl)-8-azabicyclo[3.2.1]octane]	A (A indicates 80-100% mortality)
N#CCCCN1C2CCC1CC(C#N)(c1cncc(Cl)c1)C2 (stereo not shown) [Compound 285]	A (A indicates 80-100% mortality)
CC(O)CN1C2CCC1CC(C#N)(c1cncc(Cl)c1)C2 (stereo not shown) [Compound 286]	A (A indicates 80-100% mortality)
C=CC(=O)OCCN1C2CCC1CC(C#N)(c1cncc(Cl)c1)C2 (stereo not shown) [Compound 287]	A (A indicates 80-100% mortality)
COCCN1C2CCC1CC(C#N)(c1cncc(Cl)c1)C2 (stereo not shown) [Compound 288]	A (A indicates 80-100% mortality)
N#CC1(c2cncc(Cl)c2)CC2CCC(C1)N2CC1CCCCO1 (stereo not shown) [Compound 289]	A (A indicates 80-100% mortality)
CC(CO)CN1C2CCC1CC(C#N)(c1cncc(Cl)c1)C2 (stereo not shown) [Compound 290]	A (A indicates 80-100% mortality)
N#CC1(c2cncc(Cl)c2)CC2CCC(C1)N2CP(=O)(O)O (stereo not drawn) [Compound 292, exo-3-(5-chloropyrid-3-yl)-endo-3-cyano-8-phosphonomethyl-8-azabicyclo[3.2.1]octane]	A (A indicates 80-100% mortality)
C[N+]1([O-])C2CCC1CC(C#N)(c1cncc(Cl)c1)C2 (stereo not shown) [Compound 293]	A (A indicates 80-100% mortality)
CC(C)(C)OC(=O)N1C2CCC1CC(C#N)(c1cncc(Cl)c1)C2 (stereo not shown) [Compound 294]	A (A indicates 80-100% mortality)
CON1C2CCC1CC(C#N)(c1cncc(Cl)c1)C2 (stereo not drawn) [Compound 296, exo-3-(5-chloropyrid-3-yl)-endo-3-cyano-8-methoxy-8-azabicyclo[3.2.1]octane]	A (A indicates 80-100% mortality)
N#CC1(c2ccnc(Cl)n2)CC2CCC(C1)N2CC(F)(F)F (stereo not shown) [Compound 297]	A (A indicates 80-100% mortality)
C=COC(=O)N1C2CCC1CC(C#N)(c1cncc(Cl)n1)C2 (stereo not shown) [Compound 298]	A (A indicates 80-100% mortality)
N#CC1(c2cncc(Cl)n2)CC2CCC(C1)N2 (stereo not shown) [Compound 299]	A (A indicates 80-100% mortality)
N#CC1(c2cncc(Cl)n2)CC2CCC(C1)N2Cc1cccc(Cl)c1 (stereo not shown) [Compound 300]	A (A indicates 80-100% mortality)
N#CCN1C2CCC1CC(C#N)(c1cncc(Cl)n1)C2 (stereo not shown) [Compound 301]	A (A indicates 80-100% mortality)
CC(c1cccc(Cl)c1)N1C2CCC1CC(C#N)(c1cncc(Cl)c1)C2 (stereo not shown) [Compound 302]	A (A indicates 80-100% mortality)
CN1C2CCC1CC(C#N)(c1cncc(C#N)c1)C2 (stereo not shown) [Compound 304]	A (A indicates 80-100% mortality)
C=COC(=O)N1C2CCC1CC(C#N)(c1cncc(I)c1)C2 (stereo not drawn) [Compound 309, exo-3-(5-iodopyrid-3-yl)-endo-3-cyano-8-(vinyloxycarbonyl)-8-azabicyclo[3.2.1]octane]	A (A indicates 80-100% mortality)
